Measured values reported in patent US11306036B2, “Composition containing a urease inhibitor” (RHODIA OPERATIONS, priority 2016, dated 2022).

Assay: Stability test: remaining NBPT content on treated granulated urea after storage (HPLC)
Assay type: physicochemical
Settings: storage at 40° C., 50% humidity, up to 90 days
Experimental: The sample was prepared by mixing 6.00 g of TMBPA and 8.11 g of NBPT (98% purity) in 15.89 g of Augeo® SL 191 at a temperature of 25° C. The concentration of TMBPA was 20% and the concentration of NBPT was 26.5%. Then, the solution prepared was sprayed onto 50 g of granulated urea at a dosage of 0.3% of urea weight.
For stability tests, the treated granulated urea was kept at 40° C. and an atmospheric humidity of 50% for 30 days, 60 days and 90 days, respectively. The remaining NBPT content (expressed as percentages based on initial NBPT content) was measured by using HPLC analysis according to the standard procedure.

In the case of CCCCNP(N)(N)=S [NBPT, N-(n-butyl)thiophosphoric acid triamide], the “stability of NBPT after application to the urea fertilizer (in words)” value is reported as “poor stability”.
